Measured values from PubChem BioAssay (NCI).
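1) Cells in 96-well plates. 2) Compound, 48 h, 5 concentrations. 3) Linear interpolation between surrounding doses. 4) Unreached endpoint = highest concentration. GI50 is the concentration that inhibits growth by half. TGI marks complete inhibition of growth.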

Key:
Test in all cases: NCI tumour cell line growth inhibition, 48 h
NCI-H226 lung = tested on: NCI-H226 lung
MDA-N = tested on: MDA-N
UO-31 renal = tested on: UO-31 renal
K-562 leukemia = tested on: K-562 leukemia
OVCAR-3 ovarian = tested on: OVCAR-3 ovarian
HS 578T breast = tested on: HS 578T breast
IGROV1 ovarian = tested on: IGROV1 ovarian
OVCAR-4 ovarian = tested on: OVCAR-4 ovarian
SK-OV-3 ovarian = tested on: SK-OV-3 ovarian
HOP-92 NSCLC = tested on: HOP-92 NSCLC
MOLT-4 leukemia = tested on: MOLT-4 leukemia
HCC-2998 colon = tested on: HCC-2998 colon
UACC-62 melanoma = tested on: UACC-62 melanoma
LOX IMVI melanoma = tested on: LOX IMVI melanoma
CAKI-1 renal = tested on: CAKI-1 renal
M14 melanoma = tested on: M14 melanoma
HCT-116 colon = tested on: HCT-116 colon
MCF7 breast = tested on: MCF7 breast
NCI-H522 lung = tested on: NCI-H522 lung
SK-MEL-2 melanoma = tested on: SK-MEL-2 melanoma
KM12 colon = tested on: KM12 colon
UACC-257 melanoma = tested on: UACC-257 melanoma
ACHN renal = tested on: ACHN renal
TK-10 renal = tested on: TK-10 renal
EKVX NSCLC = tested on: EKVX NSCLC
OVCAR-5 ovarian = tested on: OVCAR-5 ovarian
SW-620 colon = tested on: SW-620 colon
BT-549 breast = tested on: BT-549 breast
T-47D breast = tested on: T-47D breast
HL-60(TB) leukemia = tested on: HL-60(TB) leukemia
SN12C renal = tested on: SN12C renal
HT29 colon = tested on: HT29 colon
PC-3 prostate = tested on: PC-3 prostate
COLO 205 colon = tested on: COLO 205 colon
MDA-MB-435 = tested on: MDA-MB-435
MDA-MB-231 breast = tested on: MDA-MB-231 breast
HCT-15 colon = tested on: HCT-15 colon
DU-145 prostate = tested on: DU-145 prostate
SK-MEL-5 melanoma = tested on: SK-MEL-5 melanoma
NCI-H23 lung = tested on: NCI-H23 lung
A549 NSCLC = tested on: A549 NSCLC
HOP-62 NSCLC = tested on: HOP-62 NSCLC
CCRF-CEM leukemia = tested on: CCRF-CEM leukemia
OVCAR-8 ovarian = tested on: OVCAR-8 ovarian
786-0 renal = tested on: 786-0 renal
NCI/ADR-RES ovarian = tested on: NCI/ADR-RES ovarian
RPMI-8226 leukemia = tested on: RPMI-8226 leukemia
MALME-3M melanoma = tested on: MALME-3M melanoma
SR leukemia = tested on: SR leukemia

O=c1[nH]cnc2c1ncn2C1CCC(CO)O1 (centres undefined)
GI50 (NCI-H226 lung): > 1000 µM
TGI (NCI-H226 lung): > 1000 µM
TGI (MDA-N): > 1000 µM
TGI (UO-31 renal): > 1000 µM
GI50 (K-562 leukemia): > 1000 µM
TGI (K-562 leukemia): > 1000 µM
GI50 (OVCAR-3 ovarian): > 1000 µM
TGI (OVCAR-3 ovarian): > 1000 µM
TGI (HS 578T breast): > 1000 µM
GI50 (IGROV1 ovarian): > 1000 µM
TGI (IGROV1 ovarian): > 1000 µM
GI50 (OVCAR-4 ovarian): > 1000 µM
TGI (OVCAR-4 ovarian): > 1000 µM
GI50 (SK-OV-3 ovarian): > 1000 µM
TGI (SK-OV-3 ovarian): > 1000 µM
GI50 (HOP-92 NSCLC): > 1000 µM
TGI (HOP-92 NSCLC): > 1000 µM
GI50 (MOLT-4 leukemia): > 1000 µM
TGI (MOLT-4 leukemia): > 1000 µM
GI50 (HCC-2998 colon): > 1000 µM
TGI (HCC-2998 colon): > 1000 µM
GI50 (UACC-62 melanoma): > 1000 µM
TGI (UACC-62 melanoma): > 1000 µM
GI50 (LOX IMVI melanoma): > 1000 µM
TGI (LOX IMVI melanoma): > 1000 µM
GI50 (CAKI-1 renal): > 1000 µM
TGI (CAKI-1 renal): > 1000 µM
TGI (M14 melanoma): > 1000 µM
GI50 (HCT-116 colon): > 1000 µM
TGI (HCT-116 colon): > 1000 µM
GI50 (MCF7 breast): > 1000 µM
TGI (MCF7 breast): > 1000 µM
GI50 (NCI-H522 lung): > 1000 µM
TGI (NCI-H522 lung): > 1000 µM
GI50 (SK-MEL-2 melanoma): > 1000 µM
TGI (SK-MEL-2 melanoma): > 1000 µM
GI50 (KM12 colon): > 1000 µM
TGI (KM12 colon): > 1000 µM
GI50 (UACC-257 melanoma): > 1000 µM
TGI (UACC-257 melanoma): > 1000 µM
TGI (ACHN renal): > 1000 µM
TGI (TK-10 renal): > 1000 µM
GI50 (EKVX NSCLC): > 1000 µM
TGI (EKVX NSCLC): > 1000 µM
GI50 (OVCAR-5 ovarian): > 1000 µM
TGI (OVCAR-5 ovarian): > 1000 µM
GI50 (SW-620 colon): > 1000 µM
TGI (SW-620 colon): > 1000 µM
TGI (BT-549 breast): > 1000 µM
TGI (T-47D breast): > 1000 µM
GI50 (HL-60(TB) leukemia): > 1000 µM
TGI (HL-60(TB) leukemia): > 1000 µM
GI50 (SN12C renal): > 1000 µM
TGI (SN12C renal): > 1000 µM
GI50 (HT29 colon): > 1000 µM
TGI (HT29 colon): > 1000 µM
TGI (PC-3 prostate): > 1000 µM
GI50 (COLO 205 colon): > 1000 µM
TGI (COLO 205 colon): > 1000 µM
TGI (MDA-MB-435): > 1000 µM
TGI (MDA-MB-231 breast): > 1000 µM
GI50 (HCT-15 colon): > 1000 µM
TGI (HCT-15 colon): > 1000 µM
TGI (DU-145 prostate): > 1000 µM
GI50 (SK-MEL-5 melanoma): > 1000 µM
TGI (SK-MEL-5 melanoma): > 1000 µM
GI50 (NCI-H23 lung): > 1000 µM
TGI (NCI-H23 lung): > 1000 µM
GI50 (A549 NSCLC): > 1000 µM
TGI (A549 NSCLC): > 1000 µM
GI50 (HOP-62 NSCLC): > 1000 µM
TGI (HOP-62 NSCLC): > 1000 µM
GI50 (CCRF-CEM leukemia): > 1000 µM
TGI (CCRF-CEM leukemia): > 1000 µM
GI50 (OVCAR-8 ovarian): > 1000 µM
TGI (OVCAR-8 ovarian): > 1000 µM
TGI (786-0 renal): > 1000 µM
GI50 (NCI/ADR-RES ovarian): > 1000 µM
TGI (NCI/ADR-RES ovarian): > 1000 µM
GI50 (RPMI-8226 leukemia): > 1000 µM
TGI (RPMI-8226 leukemia): > 1000 µM
GI50 (MALME-3M melanoma): > 1000 µM
TGI (MALME-3M melanoma): > 1000 µM
TGI (SR leukemia): > 1000 µM
